Patent US20190175560A1, “MEBENDAZOLE CANCER THERAPIES AND METHODS OF USE” (Shepherd Therapeutics, Inc., priority 2017, published 2019)
pIC50: −log10 of the molar value.

Assays:
A2780cis cells = assay: MBZ cell viability IC50 (CellTiter Glo); type: cell-based; conditions: 72 hours
Protocol: (§1) The effect of mebendazole administration on cell lines derived from exemplary cancers was tested. One approach to determining the effectiveness of mebendazole in the treatment of cancer comprises in vitro testing. In this approach, cancer cell lines representative of the cancers of the disclosure are cultured in vitro according to standard techniques (see, for example, Human Cell Culture Protocols, Third Edition, […] R. D. Hughes, Editors, Humana Press, 2012), and increasing concentrations of mebendazole are administered to determine the IC50 value. As used herein, the term “IC50 value” refers to the concentration of a compound (for example mebendazole) wherein the response to that compound (such as inhibited cellular viability) is reduced by half. The IC50 is thus a measure of the effectiveness of a compound in inhibiting a biological process. […] Based on this biology, several rare cancer tumor cell lines including neuroblastoma, rhabdomyosarcoma and Ewing sarcoma were analyzed for sensitivity to MBZ treatment in vitro. […] In all cases, including those described below, the viable cells were determined using the CellTiter Glo® kit and an IC50 curve was generated using the PRISM software. […] FIGS. 1 and 2 show the effect of mebendazole on 3 ovarian cancer derived cell lines, A2780cis, SKOV-3 and TOV-112D at 24 hours, 48 hours and 72 hours. […] Percent cell viability is shown on the Y-axis, from 0 to 150 in units of 25. A2780cis cell data are represented by filled circles and a dotted line. SKOV-3 cell data are represented by squares and a solid line. TOV-112D cell data are represented by triangles and a dashed line. […] In FIG. 2, on the X-axis, the log concentration of mebendazole in μM, indicated from -4 to 4 in units of 2. In FIG. 2, on the Y-axis, percent viability is shown, from 0 to 125 in units of 25.

TOV-112D cells = assay: MBZ cell viability IC50 (CellTiter Glo); type: cell-based; conditions: Homo sapiens, TOV112D, 72 hours
Protocol: as §1

## COC(=O)Nc1nc2ccc(C(=O)c3ccccc3)cc2[nH]1 [MBZ, methyl N-(6-benzoyl-1H-benzimidazol-2-yl)carbamate]
A2780cis cells
  pIC50: 6.60
TOV-112D cells
  pIC50: 6.70
